One data set deals with HCT-116. In words: Reduction in KLF5 protein expression in human HCT116 cells at 10 uM by gel electrophoresis and autoradiography. It is filed as functional, cell-based.
For data set [1], the system named is DLD-1. In words: Reduction in KLF5 protein expression in human DLD1 cells at 10 uM by gel electrophoresis and autoradiography. It is filed as functional, cell-based.
The subject of the next data set is HT-29. The experiment in a line: Reduction in KLF5 protein expression in human HT-29 cells at 10 uM by gel electrophoresis and autoradiography. It is filed as functional, cell-based.
A further data set relates to SW-620. The experiment in a line: Reduction in KLF5 protein expression in human SW620 cells at 10 uM by gel electrophoresis and autoradiography. It is filed as functional, cell-based.
Data set [2] has as its system DLD-1. In words: Cell cycle arrest in human DLD1 cells assessed as accumulation at G1 phase accumulation after 48 hrs (reference value: 32.63 +/- 3.18%). It is filed as functional.
For data set [3], the system named is DLD-1. In words: Cell cycle arrest in human DLD1 cells assessed as accumulation at G1 phase accumulation after 24 hrs (reference value: 34.78 +/- 2.58%). It is filed as functional.
Data set [4] deals with DLD-1. The experiment in a line: Cell cycle arrest in human DLD1 cells assessed as accumulation at S phase accumulation after 24 hrs (reference value: 18.05 +/- 1.13%). It is filed as functional.
In data set [5] the test system is DLD-1. The experiment in a line: Cell cycle arrest in human DLD1 cells assessed as accumulation at subG1 phase accumulation after 24 hrs (reference value: 0.81 +/- 0.13%). It is filed as functional.
For the next data set, the system named is IEC-6. The experiment in a line: Growth inhibition of rat IEC-6 cells relative to control. It is filed as cell-based.
The subject of data set [6] is DLD-1. The experiment in a line: Cell cycle arrest in human DLD1 cells assessed as accumulation at S phase accumulation after 48 hrs (reference value: 8.06 +/- 1.35%). It is filed as functional.
Data set [7] deals with DLD-1. In words: Cell cycle arrest in human DLD1 cells assessed as accumulation at G2/M phase accumulation after 48 hrs (reference value: 58.17 +/- 4.4%). It is filed as functional.
In data set [8] the test system is DLD-1. In words: Cell cycle arrest in human DLD1 cells assessed as accumulation at subG1 phase accumulation after 48 hrs (reference value: 1.27 +/- 0.15%). It is filed as functional.
Data set [9] concerns DLD-1. The experiment in a line: Cell cycle arrest in human DLD1 cells assessed as accumulation at G2/M phase accumulation after 24 hrs (reference value: 46.58 +/- 3.73%). It is filed as functional.

The source made the active and inactive calls. The rule behind the calls is not given here. Bounds are passed on as bounds.

As for `CN(C(=O)COC(=O)/C=C/c1cccc([N+](=O)[O-])c1)C1CCS(=O)(=O)C1` (stereo not given), the outcome in the data set with HCT-116, in the data set on DLD-1 [1], in the data set with HT-29 and in the data set with SW-620 was inactive.

Regarding `CN(C(=O)CNC(=O)/C=C/c1cccc([N+](=O)[O-])c1)C1CCS(=O)(=O)C1` (stereo not given), the outcome with HCT-116, in the data set with DLD-1 [1], in the data set on HT-29 and in the data set with SW-620 was inactive.

On to `CN(C(=O)CNC(=O)/C=C/c1cccc(Cl)c1)C1CCS(=O)(=O)C1` (stereo not given), for which the outcome in the data set with HCT-116, in the data set with DLD-1 [1], with HT-29 and in the data set on SW-620 was inactive.

`CN(C(=O)CNC(=O)/C=C/c1cccc(Cl)c1)C1CCS(=O)(=O)CC1`: the Activity in the data set on DLD-1 [2] is 31.58%; in the data set on DLD-1 [3], 44.15%; in the data set with DLD-1 [4] it was 18.47%; in the data set with DLD-1 [5] it was 7.82%; in the data set on DLD-1 [6], 19.74%; in the data set with DLD-1 [7], 39.36%. In addition, the Activity with DLD-1 [8] is given as 9.63%; in the data set with DLD-1 [9] it was 29.81%. For the same compound, the result in the data set on HCT-116, in the data set on DLD-1 [1], in the data set on HT-29 and in the data set on SW-620 was Active. In addition, in the data set on IEC-6, the “growth inhibition (GI)” value is on record as under 50%.

Values taken from ChEMBL document CHEMBL4418485, “Klf5 modulators” (2015).
